Source: ChEMBL document CHEMBL1667781, “Biological evaluation of KRIBB3 analogs as a microtubule polymerization inhibitor” (Bioorg Med Chem Lett, 2011)

Test: Inhibition of tubulin polymerization for 70 mins by microtubule polymerization assay
Design: concentration or dose not given beside the values

Row | Compound | inhibition [%]
1 | CCc1cc(-c2oncc2-c2ccc(O)cc2)c(O)cc1O | 134
2 | CCc1cc(-c2oncc2-c2ccc(O)cc2)c(O)cc1OC | 115
3 | CCc1cc(-c2oncc2-c2ccc(OC)cc2)c(OCc2ccccc2)cc1OC | 79
4 | COc1ccc(-c2cnoc2-c2cc(C)c(OCc3ccccc3)c(C)c2)cc1 | 126
5 | CCc1cc(-c2oncc2-c2ccc(OC)cc2)c(O)cc1OC | 52
6 | COc1ccc(-c2cnoc2-c2ccc(OC)c(OCc3ccccc3)c2)cc1 | 128
7 | COc1ccc(-c2cnoc2-c2ccc(OCc3ccccc3)c(OCc3ccccc3)c2)cc1 | 80
8 | COc1ccc(-c2cnoc2-c2ccc(O)cc2)cc1 | 80

Other lines, results leading:

Row | inhibition [%] | Compound
9 | 65 | COc1ccc(-c2cnoc2-c2ccc(O)c(O)c2)cc1
10 | 76 | COc1ccc(-c2cnoc2-c2cc(C)c(O)c(C)c2)cc1
11 | 50 | COc1ccc(-c2cnoc2-c2ccc(OC)c(O)c2)cc1
